Measurements reported in patent US7153494B2, “Dibenzoylmethane sunscreen compositions photostabilized with amphiphilic block copolymers” (L'Oreal, priority 2002, dated 2006).

Assay: Photostability of oily Parsol 1789/block copolymer mixture as a thin coat on a glass plate, xenon lamp irradiation, absorption spectrophotometry
Type: physicochemical
Conditions: mixture with Tegomer SE-1010; thin coat about 10 microns on glass plate, in presence of oxygen; UV-A 22 J/cm^2, 20 minutes
Method: The Parsol® 1789 was dispersed in the Tegomer SE-1010 with heating at 40° C. for 60 minutes. The mixture was allowed to cool to room temperature. The oily mixture was ready for use.
The oily mixture was evaluated in the form of a thin coat of about 10 microns deposited on a glass plate (microscope slide), in the presence of oxygen.
An irradiation was then performed, using an Ostram-Centra Uvimeter equipped with a xenon lamp, under the following conditions: • Energy of the UV-A lamp: 22 J/cm^2 • Irradiation time of the simulator=20 minutes
These conditions correspond to about one hour of solar UV-A sunshine.
The photodegradation was monitored by absorption spectrophotometry. The following results were obtained: • 1) The mixture was able to form a film and the quality of the film was not impaired by the irradiation. • 2) 100% of the Parsol® 1789 was recovered after this exposure.

Parsol 1789 recovered after exposure: 100%
SMILES: COc1ccc(C(=O)CC(=O)c2ccc(C(C)(C)C)cc2)cc1 [Parsol® 1789, 4-(tert-butyl)-4′-methoxydibenzoylmethane]
